Paper PMC7048242 (Cancer letters, 2018)

Key:
S100B promoter = assay: HTS cell-based S100B promoter-driven luciferase reporter assay; design: species or system human
S100B [1] = assay: S100B expression in GL261 cells; type: cell-based, mouse
U251 glioma cells = details: 5 μM, U251 (not shown)
[2] = tested on: tumor-associated myeloid-derived cells
K-Luc cells = details: K-Luc cell line
[3] = tested on: tumor-associated leukocytes; details: 30 mg/kg/14 days, LPS 0.5 μg/ml 24 h, q-PCR
CCL2 = details: GL261 cells, 48 h incubation
[4] = tested on: intracranial GL261 gliomas
in vivo = details: C57BL/6, mouse, po, 30 mg/kg
S100B [5] = details: cited from earlier work
[6] = contralateral brain tissue without tumor

Structure (SMILES): NC[C@H](O)c1ccc(O)c(O)c1 [NE, norepinephrine]
- S100B promoter activity in U251-Luc (S100B promoter; NE added every 3 h, luciferase measured in 12 h): induced
- S100B expression in GL261 (S100B [1]; NE added every 3 h, 24 h, Western analysis): induced

Structure (SMILES): CNCC[C@H](Oc1cccc2ccccc12)c1cccs1 [Duloxetine]
- S100B promoter activity (S100B promoter; 5 μM, luciferase measured 24 h after treatment): inhibited
- IC50 (S100B promoter; Homo sapiens, U-251): 10 µM
- CCL2 expression in GL261 gliomas (immunohistochemistry) (S100B, RAGE, CCL2; 30 mg/kg, two weeks): decrease
- Total brain S100B, RAGE or CCL2 protein levels (S100B, RAGE, CCL2; GL261 tumor-bearing mice, 5 or 30 mg/kg/14 days, tumor and peritumoral tissue): did not significantly inhibit
- Serum S100B and soluble RAGE (sRAGE) levels (S100B, RAGE, CCL2; GL261 tumor-bearing mice, two-week treatment): Nor mouse serum S100B and soluble RAGE (sRAGE) levels changed
- S100B and RAGE in i.c. GL261 tumors (histochemistry) (S100B, RAGE, CCL2; two-week treatment, tumor cells): effectively inhibited
- S100B expression (S100B [1]; GL261 cells, low concentrations, 24 h (qPCR), 48 h (Western, ELISA, immunostains)): inhibited
- Cytotoxicity (U251 glioma cells): without causing cytotoxicity
- Proportion of macrophages, monocytic myeloid-derived cells and neutrophils in GL261 gliomas ([2]; 30 mg/kg x 14 days, FACS): decreased
- Pathway Scores for innate and adaptive immunity processes in tumors ([2]; Nanostring, GL261 tumors (not in TME)): significantly higher
- Cell proliferation in vitro (K-Luc cells): modest inhibitory effect
- Il-1β expression by tumor-associated leukocytes [3]: higher levels
- Il-6, Il-10 and Tgf-β expression by tumor-associated leukocytes [3]: lower levels
- Cell proliferation (GL261-Luc cells; GL261, Dul concentration < 10 μM): not significantly inhibited
- LD50 (GL261-Luc cells; GL261-Luc cells, 24 h incubation): 25.1 µM
- CCL2 expression (CCL2): inhibited
- Overall tumor levels of S100B and RAGE (K-Luc gliomas; K-Luc tumor-bearing mice, daily for 14 days): did not significantly change
- Growth of K-Luc tumors (K-Luc gliomas; two-week treatment): did not significantly inhibit
- Tumor growth ([4]; i.c. GL261, 14 days treatment started a day after implantation): significantly decreased
- Animal survival ([4]; i.c. GL261, high doses (30 mg/kg/14 days), started a day after implantation): improved
- concentration at 0.5 h (in vivo; GL261 tumor): 48.8 µM
- concentration at 2 h (in vivo; GL261 tumor): 70.8 µM
- concentration at 6 h (in vivo; GL261 tumor): 24.9 µM
- concentration at 12 h (in vivo; GL261 tumor): 10 µM
- concentration at 0.5 h (in vivo; [6]): 36.3 µM
- concentration at 2 h (in vivo; [6]): 65.9 µM
- concentration at 6 h (in vivo; [6]): 24.2 µM
- concentration at 12 h (in vivo; [6]): 9.64 µM
- concentration at 0.5 h (in vivo; plasma): 3.04 µM
- concentration at 2 h (in vivo; plasma): 2.12 µM
- concentration at 6 h (in vivo; plasma): 1.28 µM
- concentration at 12 h (in vivo; plasma): 0.39 µM

Structure (SMILES): CNCCC(Oc1ccc(C(F)(F)F)cc1)c1ccccc1 (centres unmarked) [fluoxetine]
- S100B expression in rat astrocytes in vivo (S100B [5]): stimulated
